Reference: patent US11236081B2, “Crystalline salts of corydalmine” (priority 2018, dated 2022)
Values joined by “and” are separate entries in the source; they are usually repeats but may differ in a detail not shown here. Equal values may be shown once.

Assays:
[1] = Solubility studies in water at 2 hours; type: physicochemical
[2] = Acid pKa of the free base; type: physicochemical
[3] = Pharmacokinetic study: plasma concentration and plasma PK parameters after IV/PO dosing (LC-MS/MS, WinNonlin); type: in vivo, Male SD Rat; conditions: male SD rat
From the text: Pharmacokinetic and Brain Penetration Study
Dose formulation processing during dosing: The dose formulations will be kept at room temperature.
Concentrations of Test Article in the plasma samples will be analyzed using a LC-MS/MS method.
WinNonlin (Phoenix™, version 6.1) or other similar software will be used for pharmacokinetic calculations. The following pharmacokinetic parameters will be calculated, whenever possible from the plasma concentration versus time data:
IV administration: T1/2, C0, AUClast, AUCinf, MRTinf, Cl, Vss, Number of Points for Regression.
PO administration: T1/2, Cmax, Tmax, MRTinf, AUCinf, AUClast, F %, Number of Points for Regression.
The pharmacokinetic data will be described using descriptive statistics such as mean, standard deviation.

[4] = IV 3 mg/kg, plasma, individual rats, listed as TLZ-16 freebase, 3 mg/kg
[5] = PO 10 mg/kg (equal to freebase), plasma, individual rats, vehicle 20% HP-β-CD in water (POA, freebase) or water (salts), listed as TLZ-16 freebase, 10 mg/kg

Q: With `COc1cc2c(cc1OC)[C@@H]1Cc3ccc(O)c(OC)c3CN1CC2` [Compound (1), l-corydalmine] as the molecule, how does the solubility at 2 h [1] read?
A: < 1000 µg/mL

Q: What about the pKa [2] of the same molecule?
A: ~5.2

Q: And the concentration in plasma ([3]; IV 3 mg/kg, 0 h, individual rats)?
A: BLOQ (BLOQ = below limit of quantitation (0.2 ng/mL))

Q: And the concentration in plasma ([3]; IV 3 mg/kg, 0.083 h, individual rats, listed as TLZ-16 freebase, 3 mg/kg)?
A: 1410 ng/mL and 1610 ng/mL

Q: And the concentration in plasma ([3]; IV 3 mg/kg, 0.25 h, individual rats, listed as TLZ-16 freebase, 3 mg/kg)?
A: 960 ng/mL and 995 ng/mL

Q: What about the concentration in plasma ([3]; IV 3 mg/kg, 0.5 h, individual rats, listed as TLZ-16 freebase, 3 mg/kg) of the same molecule?
A: 496 ng/mL and 536 ng/mL

Q: And the concentration in plasma ([3]; IV 3 mg/kg, 1 h, individual rats, listed as TLZ-16 freebase, 3 mg/kg)?
A: 174 ng/mL and 206 ng/mL

Q: And the concentration in plasma ([3]; IV 3 mg/kg, 2 h, individual rats, listed as TLZ-16 freebase, 3 mg/kg)?
A: 81.2 ng/mL and 60.6 ng/mL

Q: What about the concentration in plasma ([3]; IV 3 mg/kg, 4 h, individual rats, listed as TLZ-16 freebase, 3 mg/kg) of the same molecule?
A: 28.6 ng/mL and 43.0 ng/mL and 20.2 ng/mL

Q: What about the concentration in plasma ([3]; IV 3 mg/kg, 8 h, individual rats, listed as TLZ-16 freebase, 3 mg/kg) of the same molecule?
A: 5.24 ng/mL and 11.7 ng/mL and 2.20 ng/mL

Q: And the concentration in plasma ([3]; IV 3 mg/kg, 24 h, individual rats, listed as TLZ-16 freebase, 3 mg/kg)?
A: BLOQ (BLOQ = below limit of quantitation (0.2 ng/mL))

Q: And the AUCInf [3, 4]?
A: 1074 ng·h/mL and 1030 ng·h/mL

Q: What about the AUClast [3, 4] of the same molecule?
A: 1038 ng·h/mL and 1027 ng·h/mL

Q: What about the AUClast/D [3, 4] of the same molecule?
A: 312 kg·ng·h/mL/mg and 346 kg·ng·h/mL/mg and 342 kg·ng·h/mL/mg

Q: What about the “AUC—% Extrap_obs” value [3, 4] of the same molecule?
A: 1.32% and 3.37% and 0.306%

Q: What about the C0 [3, 4] of the same molecule?
A: 1707 ng/mL and 2045 ng/mL

Q: What about the Cl_obs [3, 4] of the same molecule?
A: 52.6 mL/min/kg and 46.5 mL/min/kg and 48.6 mL/min/kg

Q: And the MRTInf_obs [3, 4]?
A: 1.52 h and 1.08 h

Q: And the T1/2 [3, 4]?
A: 1.66 h and 2.14 h and 4.37 h

Q: What about the Vss_obs [3, 4] of the same molecule?
A: 3.43 L/kg and 4.26 L/kg and 3.16 L/kg

Q: And the AUClast/D, Mean ([3]; IV 3 mg/kg, plasma, mean n=3)?
A: 334 kg·ng·h/mL/mg

Q: What about the “AUC—% Extrap_obs, Mean” value ([3]; IV 3 mg/kg, plasma, mean n=3) of the same molecule?
A: 1.67%

Q: And the “C0, Mean” value ([3]; IV 3 mg/kg, plasma, mean n=3)?
A: 1822 ng/mL

Q: And the “Cl_obs, Mean” value ([3]; IV 3 mg/kg, plasma, mean n=3)?
A: 49.2 mL/min/kg

Q: And the “Vss_obs, Mean” value ([3]; IV 3 mg/kg, plasma, mean n=3)?
A: 3.61 L/kg

Q: And the F ([3]; PO 10 mg/kg (equal to freebase) vs IV 3 mg/kg freebase, individual rats, vehicle 20% HP-β-CD in water (POA, freebase) or water (salts), listed as TLZ-16 freebase)?
A: 18.4% and 27.3% and 24.4%

Q: What about the “F, Mean” value ([3]; PO 10 mg/kg (equal to freebase) vs IV 3 mg/kg freebase, mean n=3, vehicle 20% HP-β-CD in water (POA, freebase) or water (salts)) of the same molecule?
A: 23.4%

Q: And the concentration in plasma ([3]; PO 10 mg/kg (equal to freebase), 0 h, individual rats, vehicle 20% HP-β-CD in water (POA, freebase) or water (salts))?
A: BLOQ (BLOQ = below limit of quantitation (0.2 ng/mL))

Q: What about the concentration in plasma ([3]; PO 10 mg/kg (equal to freebase), 0.25 h, individual rats, vehicle 20% HP-β-CD in water (POA, freebase) or water (salts), listed as TLZ-16 freebase, 10 mg/kg) of the same molecule?
A: 127 ng/mL and 358 ng/mL and 86.7 ng/mL

Q: And the concentration in plasma ([3]; PO 10 mg/kg (equal to freebase), 0.5 h, individual rats, vehicle 20% HP-β-CD in water (POA, freebase) or water (salts), listed as TLZ-16 freebase, 10 mg/kg)?
A: 139 ng/mL and 344 ng/mL and 109 ng/mL

Q: And the concentration in plasma ([3]; PO 10 mg/kg (equal to freebase), 1 h, individual rats, vehicle 20% HP-β-CD in water (POA, freebase) or water (salts), listed as TLZ-16 freebase, 10 mg/kg)?
A: 167 ng/mL and 98.9 ng/mL

Q: And the concentration in plasma ([3]; PO 10 mg/kg (equal to freebase), 2 h, individual rats, vehicle 20% HP-β-CD in water (POA, freebase) or water (salts), listed as TLZ-16 freebase, 10 mg/kg)?
A: 53.1 ng/mL and 71.9 ng/mL

Q: And the concentration in plasma ([3]; PO 10 mg/kg (equal to freebase), 4 h, individual rats, vehicle 20% HP-β-CD in water (POA, freebase) or water (salts), listed as TLZ-16 freebase, 10 mg/kg)?
A: 47.1 ng/mL and 40.1 ng/mL

Q: What about the concentration in plasma ([3]; PO 10 mg/kg (equal to freebase), 8 h, individual rats, vehicle 20% HP-β-CD in water (POA, freebase) or water (salts), listed as TLZ-16 freebase, 10 mg/kg) of the same molecule?
A: 35.7 ng/mL and 45.3 ng/mL

Q: And the concentration in plasma ([3]; PO 10 mg/kg (equal to freebase), 24 h, individual rats, vehicle 20% HP-β-CD in water (POA, freebase) or water (salts), listed as TLZ-16 freebase, 10 mg/kg)?
A: BLOQ (BLOQ = below limit of quantitation (0.2 ng/mL)) and 0.278 ng/mL and 0.869 ng/mL

Q: What about the AUCInf [3, 5] of the same molecule?
A: 925 ng·h/mL and 829 ng·h/mL

Q: What about the AUClast [3, 5] of the same molecule?
A: 924 ng·h/mL and 825 ng·h/mL

Q: And the AUClast/D [3, 5]?
A: 61.5 kg·ng·h/mL/mg and 92.4 kg·ng·h/mL/mg and 82.5 kg·ng·h/mL/mg

Q: And the “AUC—% Extrap_obs” value [3, 5]?
A: 58.7% and 0.111% and 0.505%

Q: What about the Cmax [3, 5] of the same molecule?
A: 139 ng/mL and 358 ng/mL and 109 ng/mL

Q: And the MRTInf_obs [3, 5]?
A: 13.6 h and 4.19 h and 5.68 h

Q: What about the T1/2 [3, 5] of the same molecule?
A: 8.80 h and 2.57 h and 3.34 h

Q: What about the Tmax [3, 5] of the same molecule?
A: 0.25 h
